# Source: US11357856B2, “Lipids for delivery of active agents” (Acuitas Therapeutics, Inc., priority 2017, dated 2022)
# Assays:
# [1] = Determination of pKa of formulated lipids (TNS fluorescence assay in lipid nanoparticles); format: physicochemical; conditions: cationic lipid formulated in lipid nanoparticles (cationic lipid/DSPC/cholesterol/PEG-lipid 50/10/38.5/1.5 mol %); pH of half-maximal TNS fluorescence
# Procedure: As described elsewhere, the pKa of formulated cationic lipids is correlated with the effectiveness of LNPs for delivery of nucleic acids (see Jayaraman et al, Angewandte Chemie, International Edition (2012), 51(34), 8529-8533; Semple et al, Nature Biotechnology 28, 172-176 (2010)). The preferred range of pKa is ˜5 to ˜7. […] Lipid nanoparticles comprising cationic lipid/DSPC/cholesterol/PEG-lipid (50/10/38.5/1.5 mol %) in PBS at a concentration of 0.4 mM total lipid are prepared using the in-line process as described in Example 1. TNS is prepared as a 100 μM stock solution in distilled water. Vesicles are diluted to 24 μM lipid in 2 mL of buffered solutions containing, 10 mM HEPES, 10 mM MES, 10 mM ammonium acetate, 130 mM NaCl, where the pH ranged from 2.5 to 11. An aliquot of the TNS solution is added to give a final concentration of 1 μM and following vortex mixing fluorescence intensity is measured at room temperature in a SLM Aminco Series 2 Luminescence Spectrophotometer using excitation and emission wavelengths of 321 nm and 445 nm. A sigmoidal best fit analysis is applied to the fluorescence data and the pKa was measured as the pH giving rise to half-maximal fluorescence intensity.
# [2] = system: luciferase expression in the liver (FLuc mRNA); assay: Luciferase mRNA in vivo evaluation using lipid nanoparticle compositions (liver luciferase expression); set-up: species or system mice; conditions: LNP 50/10/38.5/1.5 (PEG-DMA) or 47.5/10/40.8/1.7, tail vein injection, liver 4 hours after administration; for Liver Luc @ 0.3 mg/kg (ng luc/g liver): 0.3 mg mRNA/kg; for Liver Luc @ 1.0 mg/kg (ng luc/g liver): 1.0 mg mRNA/kg; for Liver Luc @ 0.5 mg/kg (ng luc/g liver): 0.5 mg mRNA/kg
# Procedure: Lipid nanoparticles are prepared and tested according to the general procedures described in PCT Pub. Nos. WO 2015/199952 and WO 2017/004143, the full disclosures of which are incorporated herein by reference. Briefly, cationic lipid, DSPC, cholesterol and PEG-lipid are solubilized in ethanol at a molar ratio of about 50:10:38.5:1.5 or about 47.5:10:40.8:1.7. Lipid nanoparticles (LNP) are prepared at a total lipid to mRNA weight ratio of approximately 10:1 to 30:1. The mRNA is diluted to 0.2 mg/mL in 10 to 50 mM citrate or acetate buffer, pH 4. Syringe pumps are used to mix the ethanolic lipid solution with the mRNA aqueous solution at a ratio of about 1:5 to 1:3 (vol/vol) with total flow rates above 15 mL/min. The ethanol is then removed and the external buffer replaced with PBS by dialysis. Finally, the lipid nanoparticles are filtered through a 0.2 μm pore sterile filter. Lipid nanoparticle particle size is approximately 55-95 nm diameter, and in some instances approximately 70-90 nm diameter as determined by quasi-elastic light scattering using a Malvern Zetasizer Nano ZS (Malvern, UK).
# Studies are performed in 6-8 week old female C57BL/6 mice (Charles River) or 8-10 week old CD-1 (Harlan) mice (Charles River) according to guidelines established by an institutional animal care committee (ACC) and the Canadian Council on Animal Care (CCAC). Varying doses of mRNA-lipid nanoparticle are systemically administered by tail vein injection and animals euthanized at a specific time point (e.g., 4 hours) post-administration. Liver and spleen are collected in pre-weighed tubes, weights determined, immediately snap frozen in liquid nitrogen and stored at −80° C. until processing for analysis.
# For liver, approximately 50 mg is dissected for analyses in a 2 mL FastPrep tubes (MP Biomedicals, Solon Ohio). ¼″ ceramic sphere (MP Biomedicals) is added to each tube and 500 μL of Glo Lysis Buffer—GLB (Promega, Madison Wis.) equilibrated to room temperature is added to liver tissue. Liver tissues are homogenized with the FastPrep24 instrument (MP Biomedicals) at 2×6.0 m/s for 15 seconds. Homogenate is incubated at room temperature for 5 minutes prior to a 1:4 dilution in GLB and assessed using SteadyGlo Luciferase assay system (Promega). Specifically, 50 μL of diluted tissue homogenate is reacted with 50 μL of SteadyGlo substrate, shaken for 10 seconds followed by 5 minute incubation and then quantitated using a CentroXS^3 LB 960 luminometer (Berthold Technologies, Germany). The amount of protein assayed is determined by using the BCA protein assay kit (Pierce, Rockford Ill.). Relative luminescence units (RLU) are then normalized to total ug protein assayed. To convert RLU to ng luciferase a standard curve is generated with QuantiLum Recombinant Luciferase (Promega).
# The FLuc mRNA (L-6107 or L-7202) from Trilink Biotechnologies will express a luciferase protein, originally isolated from the firefly, photinus pyralis. FLuc is commonly used in mammalian cell culture to measure both gene expression and cell viability. It emits bioluminescence in the presence of the substrate, luciferin. This capped and polyadenylated mRNA is fully substituted with respect to uridine and/or cytidine nucleosides.
# The cationic lipids shown in Table 2 have previously been tested with nucleic acids. For comparative purposes, these lipids were also used to formulate lipid nanoparticles containing the FLuc mRNA (L-6107) using an in line mixing method, as described in Example 1 and in PCT/US10/22614, which is hereby incorporated by reference in its entirety. Lipid nanoparticles were formulated using the following molar ratio: 50% Cationic lipid/10% distearoylphosphatidylcholine (DSPC)/38.5% Cholesterol/1.5% PEG lipid (“PEG-DMG”, i.e., 1-(monomethoxy-polyethyleneglycol)-2,3-dimyristoylglycerol, with an average PEG molecular weight of 2000). In alternate embodiments, cationic lipid, DSPC, cholesterol and PEG-lipid are formulated at a molar ratio of approximately 47.5:10:40.8:1.7. […]
SMILES,pKa [1],Liver Luc @ 0.3 mg/kg (ng luc/g liver) [2] [ng luc/g liver],Liver Luc @ 1.0 mg/kg (ng luc/g liver) [2] [ng luc/g liver],Liver Luc @ 0.5 mg/kg (ng luc/g liver) [2] [ng luc/g liver]
CCCCCCCCC(CCCCCC)CN(CCCCN(C)C)CC(CCCCCC)CCCCCCCC (stereo not drawn) [Compound 4],5.55,87 ± 11,233 ± 121,
CCCCCCCCC(CCCCCC)CN(CCCCCN(C)C)CC(CCCCCC)CCCCCCCC (stereo not drawn) [Compound 5],5.77,2840 ± 757,13739 ± 7631,
CCCCCCCCC(CCCCCC)CN(CCCCCCN(C)C)CC(CCCCCC)CCCCCCCC (stereo not drawn) [Compound 15],5.91,,,2417 ± 833
CCCCCCCCC(CCCCCC)CN(CCCCCN(CCO)CCO)CC(CCCCCC)CCCCCCCC (stereo not drawn) [Compound 16],5.87,,,52 ± 26
CCCCCCCCC(CCCCCC)CN(CCCNC)CC(CCCCCC)CCCCCCCC (stereo not drawn) [Compound 17],6.49,,,12 ± 5
